Experimental data as given in US9505710B2 (priority 2015, dated 2016).
Counter-ions that a name gives are not always drawn.

Molecular target: BoNT/A LC1-429 (Clostridium botulinum, UniProt P0DPI1)
Assay: biochemical
Settings: BoNT/A Ki (nM)

Sequence of BoNT/A LC1-429 (P0DPI1 1-429, added parts left off): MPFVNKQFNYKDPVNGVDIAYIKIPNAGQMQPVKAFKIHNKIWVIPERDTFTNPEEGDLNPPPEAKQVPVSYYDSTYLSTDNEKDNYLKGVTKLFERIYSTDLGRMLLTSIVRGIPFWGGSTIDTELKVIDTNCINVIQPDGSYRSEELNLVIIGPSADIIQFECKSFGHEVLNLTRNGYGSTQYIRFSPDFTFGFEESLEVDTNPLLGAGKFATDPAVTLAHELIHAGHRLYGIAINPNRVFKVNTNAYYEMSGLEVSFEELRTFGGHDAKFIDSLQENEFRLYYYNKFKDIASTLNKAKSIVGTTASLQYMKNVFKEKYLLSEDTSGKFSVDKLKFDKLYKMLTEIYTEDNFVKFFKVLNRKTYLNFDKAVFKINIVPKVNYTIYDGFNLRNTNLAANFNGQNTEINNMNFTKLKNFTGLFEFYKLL

SMILES	Ki [nM]
CCCCOCc1ccc([C@@H](Cc2ccc(Cl)cc2)[C@@H](CC(=O)NO)OC)cc1 [Example 3-13]	24.9
CCO[C@H](CC(=O)NO)[C@H](Cc1ccc(Cl)cc1)c1ccc(COCOC)cc1 [Example 3-14]	21.2
CCO[C@H](CC(=O)NO)[C@H](Cc1ccc(Cl)cc1)c1ccc(COCOCCOC)cc1 [Example 3-15]	30
CCO[C@H](CC(=O)NO)[C@H](Cc1ccc(Cl)cc1)c1ccc(CN2CCOCC2)cc1 [Example 3-16, (3R,4R)-5-(4-chlorophenyl)-3-ethoxy-N-hydroxy-4-(4-(morpholinomethyl)phenyl) pentanamide]	10.1 ± 2.4
CCO[C@H](CC(=O)NO)[C@H](Cc1ccc(Cl)cc1)c1ccc(CN2CCN(C(=O)OC(C)(C)C)CC2)cc1 [Example 3-17, tert-butyl 4-(4-((2R,3R)-1-(4-chlorophenyl)-3-ethoxy-5-(hydroxyamino)-5-oxopentan-2-yl)benzyl)piperazine-1-carboxylate]	8.5
CCO[C@H](CC(=O)NO)[C@H](Cc1ccc(Cl)cc1)c1ccc(CN2CCNCC2)cc1 [Example 3-18, (3R,4R)-5-(4-chlorophenyl)-3-ethoxy-N-hydroxy-4-(4-(piperazin-1-ylmethyl)phenyl)pentanamide]	13.5 ± 2.8
CCO[C@H](CC(=O)NO)[C@H](Cc1ccc(Cl)cc1)c1ccc(CN2CCCCC2)cc1 [Example 3-19, (3R,4R)-5-(4-chlorophenyl)-3-ethoxy-N-hydroxy-4-(4-(piperidin-1-ylmethyl)phenyl)pentanamide]	19.5
CO[C@H](CC(=O)NO)[C@H](Cc1ccc(Cl)cc1)c1ccc(CN2CCCCC2)cc1 [Example 3-20, (3R,4R)-5-(4-chlorophenyl)-N-hydroxy-3-methoxy-4-(4-(piperidin-1-ylmethyl)phenyl)pentanamide]	37
CCO[C@H](CC(=O)NO)[C@H](Cc1ccc(Cl)cc1)c1ccc(N(C)CCO)cc1 [Example 3-21, (3R,4R)-5-(4-chlorophenyl)-3-ethoxy-N-hydroxy-4-(4-((2-hydroxyethyl)(methyl)amino)phenyl)pentanamide]	8.5
CCO[C@H](CC(=O)NO)[C@H](Cc1ccc(Cl)cc1)c1ccc(N2CCNCC2)cc1 [Example 3-22, (3R,4R)-5-(4-chlorophenyl)-3-ethoxy-N-hydroxy-4-(4-(piperazin-1-yl)phenyl)pentanamide]	13.5
CCO[C@H](CC(=O)NO)[C@H](Cc1ccc(Cl)cc1)c1ccc(N2CCOCC2)cc1 [Example 3-23, (3R,4R)-5-(4-chlorophenyl)-3-ethoxy-N-hydroxy-4-(4-morpholinophenyl)pentanamide]	10
CCO[C@H](CC(=O)NO)[C@H](Cc1ccc(Cl)cc1)c1ccc(-c2cccn2C(=O)OC(C)(C)C)cc1 [Example 3-24, tert-butyl 2-(4-((2R,3R)-1-(4-chlorophenyl)-3-ethoxy-5-(hydroxyamino)-5-oxopentan-2-yl)phenyl)-1H-pyrrole-1-carboxylate]	8.8
CCO[C@H](CC(=O)NO)[C@H](Cc1ccc(Cl)cc1)c1ccc(-c2ccc[nH]2)cc1 [Example 3-25, (3R,4R)-4-(4-(1H-pyrrol-2-yl)phenyl)-5-(4-chlorophenyl)-3-ethoxy-N-hydroxypentanamide]	8
CCO[C@H](CC(=O)NO)[C@H](Cc1ccc(Cl)cc1)c1ccc(-c2cncnc2)cc1 [Example 3-26, (3R,4R)-5-(4-chlorophenyl)-3-ethoxy-N-hydroxy-4-(4-(pyrimidin-5-yl)phenyl)pentanamide]	3.7
CCO[C@H](CC(=O)NO)[C@H](Cc1ccc(Cl)cc1)c1ccc(-c2cnc(N(C)C)nc2)cc1 [Example 3-27, (3R,4R)-5-(4-chlorophenyl)-4-(4-(2-(dimethylamino)pyrimidin-5-yl)phenyl)-3-ethoxy-N-hydroxypentanamide]	5.3
CCO[C@H](CC(=O)NO)[C@H](Cc1ccc(Cl)cc1)c1ccc(-c2c(C)nn(C)c2C)cc1 [Example 3-28, (3R,4R)-5-(4-chlorophenyl)-3-ethoxy-N-hydroxy-4-(4-(1,3,5-trimethyl-1H-pyrazol-4-yl)phenyl)pentanamide]	3.7
CCO[C@H](CC(=O)NO)[C@H](Cc1ccc(Cl)cc1)c1ccc(-n2ccnc2)cc1 [Example 3-29, (3R,4R)-4-(4-(1H-imidazol-1-yl)phenyl)-5-(4-chlorophenyl)-3-ethoxy-N-hydroxypentanamide]	3.6
CCO[C@H](CC(=O)NO)[C@H](Cc1ccc(Cl)cc1)c1ccc(-c2ccncc2)cc1 [Example 3-30, (3R,4R)-5-(4-chlorophenyl)-3-ethoxy-N-hydroxy-4-(4-(pyridin-4-yl)phenyl)pentanamide]	4.5
CCO[C@H](CC(=O)NO)[C@H](Cc1ccc(Cl)cc1)c1ccc(C(=O)NO)cc1 [Example 4-1, 4-((2R,3R)-1-(4-chlorophenyl)-3-ethoxy-5-(hydroxyamino)-5-oxopentan-2-yl)-N-hydroxybenzamide]	10.5

SMILES	Ki [nM]
CCCN(CCC)C(=O)c1ccc([C@@H](Cc2ccc(Cl)cc2)[C@@H](CC(=O)NO)OCC)cc1 [Example 4-2, 4-((2R,3R)-1-(4-chlorophenyl)-3-ethoxy-5-(hydroxyamino)-5-oxopentan-2-yl)-N,N-dipropylbenzamide]	3.9
CCO[C@H](CC(=O)NO)[C@H](Cc1ccc(Cl)cc1)c1ccc(C(=O)N2CCCCC2)cc1 [Example 4-3, (3R,4R)-5-(4-chlorophenyl)-3-ethoxy-N-hydroxy-4-(4-(piperidine-1-carbonyl)phenyl)pentanamide]	4.3 ± 2
CCO[C@H](CC(=O)NO)[C@H](Cc1ccc(Cl)cc1)c1ccc(C(=O)N(C)CCO)cc1 [Example 4-4, 4-((2R,3R)-1-(4-chlorophenyl)-3-ethoxy-5-(hydroxyamino)-5-oxopentan-2-yl)-N-(2-hydroxyethyl)-N-methylbenzamide]	9.8 ± 3.7
CCO[C@H](CC(=O)NO)[C@H](Cc1ccc(Cl)cc1)c1ccc(C(=O)N2CCOCC2)cc1 [Example 4-5, (3R,4R)-5-(4-chlorophenyl)-3-ethoxy-N-hydroxy-4-(4-(morpholine-4-carbonyl)phenyl)pentanamide]	5.8 ± 1.1
CO[C@H](CC(=O)NO)[C@H](Cc1ccc(Cl)cc1)c1ccc(C(=O)N2CCOCC2)cc1 [Example 4-6, (3R,4R)-5-(4-chlorophenyl)-N-hydroxy-3-methoxy-4-(4-(morpholine-4-carbonyl)phenyl)pentanamide]	11.4
CO[C@H](CC(=O)NO)[C@H](Cc1ccc(Cl)cc1)c1ccc(C(=O)N2CCCCC2)cc1 [Example 4-7, (3R,4R)-5-(4-chlorophenyl)-N-hydroxy-3-methoxy-4-(4-(piperidine-1-carbonyl)phenyl)pentanamide]	5.5
CCO[C@H](CC(=O)NO)[C@H](Cc1ccc(Cl)cc1)c1ccc(C(=O)N2CCN(C(=O)OC(C)(C)C)CC2)cc1 [Example 4-8, tert-butyl 4-(4-((2R,3R)-1-(4-chlorophenyl)-3-ethoxy-5-(hydroxyamino)-5-oxopentan-2-yl)benzoyl)piperazine-1-carboxylate]	22
CCO[C@H](CC(=O)NO)[C@H](Cc1ccc(Cl)cc1)c1ccc(C(=O)N2CCNCC2)cc1 [Example 4-9, (3R,4R)-5-(4-chlorophenyl)-3-ethoxy-N-hydroxy-4-(4-(piperazine-1-carbonyl)phenyl)pentanamide]	9.2 ± 6.1
CCO[C@H](CC(=O)NO)[C@H](Cc1ccc(Cl)cc1)c1ccc(C(=O)N(CCO)CCO)cc1 [Example 4-10, 4-((2R,3R)-1-(4-chlorophenyl)-3-ethoxy-5-(hydroxyamino)-5-oxopentan-2-yl)-N,N-bis(2-hydroxyethyl)benzamide]	16.7
CO[C@H](CC(=O)NO)[C@H](Cc1ccc(Cl)cc1)c1ccc(Cl)c(Br)c1 [Example 5-1, (3R,4R)-4-(3-bromo-4-chlorophenyl)-5-(4-chlorophenyl)-N-hydroxy-3-methoxypentanamide]	5.2
CO[C@H](CC(=O)NO)[C@H](Cc1ccc(Cl)cc1)c1ccc(Cl)c(CN2CCCCC2)c1 [Example 5-2, (3R,4R)-4-(4-chloro-3-(piperidin-1-ylmethyl)phenyl)-5-(4-chlorophenyl)-N-hydroxy-3-methoxypentanamide]	3.7
CO[C@H](CC(=O)NO)[C@H](Cc1ccc(Cl)cc1)c1ccc(Cl)c(C(=O)N2CCCCC2)c1 [Example 5-3, (3R,4R)-4-(4-chloro-3-(piperidine-1-carbonyl)phenyl)-5-(4-chlorophenyl)-N-hydroxy-3-methoxypentanamide]	13.1
CO[C@H](CC(=O)NO)[C@H](Cc1ccc(Cl)cc1)c1ccc(F)cc1F [Example 5-4, (3R,4R)-5-(4-chlorophenyl)-4-(2,4-difluorophenyl)-N-hydroxy-3-methoxypentanamide]	3.95
CO[C@H](CC(=O)NO)[C@H](Cc1ccc(Cl)cc1)c1cc(F)c(F)c(F)c1 [Example 5-5, (3R,4R)-5-(4-chlorophenyl)-N-hydroxy-3-methoxy-4-(3,4,5-trifluorophenyl)pentanamide]	5.36
CO[C@H](CC(=O)NO)[C@H](Cc1ccc(Cl)cc1)c1cc(F)c(F)c(F)c1F [Example 5-6, (3R,4R)-5-(4-chlorophenyl)-N-hydroxy-3-methoxy-4-(2,3,4,5-tetrafluorophenyl)pentanamide]	4.95
CCO[C@H](CC(=O)NO)[C@H](Cc1ccc(Cl)cc1)c1ccc(Cl)cc1 [Example 6-1, (3R,4R)-4,5-bis(4-chlorophenyl)-3-ethoxy-N-hydroxypentanamide]	4.9
CO[C@H](CC(=O)NO)[C@H](Cc1ccc(Cl)cc1)c1ccc(F)cc1 [Example 6-2, (3R,4R)-5-(4-chlorophenyl)-4-(4-fluorophenyl)-N-hydroxy-3-methoxypentanamide potassium salt]	13
CCO[C@H](CC(=O)NO)[C@H](Cc1ccc(Cl)cc1)c1ccc(F)cc1 [Example 6-3, (3R,4R)-5-(4-chlorophenyl)-3-ethoxy-4-(4-fluorophenyl)-N-hydroxypentanamide potassium salt]	8.9
CO[C@H](CC(=O)NO)[C@H](Cc1ccc(Cl)cc1C)c1ccc(F)cc1 [Example 6-4, (3R,4R)-5-(4-chloro-2-methylphenyl)-4-(4-fluorophenyl)-N-hydroxy-3-methoxypentanamide]	1.48
